Measurements from patent US20260027096A1, “PHD INHIBITORS” (Oxford University Innovation Limited, priority 2023, published 2026).

Key:
[1] = test system: human multiple myeloma cell lines; assay: Apoptosis of multiple myeloma cell lines; assay type: cell-based; conditions: 50 μM, versus the control
Experimental: Apoptosis of multiple human MM cell lines derived from different patients (AWO^WT, H292, KMS12, RPMI, U266 and MM.1S) treated with vehicle control, 50 μM Daprodustat (2). Data represent mean±SEM; * p<0.05; ** p<0.01, *** p<0.001.
Viable cells were counted by trypan blue exclusion at the indicated time points. To analyse cells undergoing apoptosis, cells were suspended in binding buffer containing PE-conjugated Annexin-V or FITC-conjugated Annexin-V, and either PI or DAPI.

[2] = test system: Meis1/Hoxa9-transformed AML cells lacking both Hif1α and Hif2α and control cells; assay: Proliferation of control and Hif1α/Hif2α-deficient Meis1/Hoxa9 AML cells; assay type: cell-based, mouse; conditions: 50 μM
From the text: To investigate whether HIF-α mediates the anti-leukaemic effects of PHD inhibition, Meis1/Hoxa9-transformed AML cells lacking both Hif1α and Hif2α and control cells were employed (Vukovic et al., 2015).

iMLL-AF9 AML cells = assay: RNA-seq analysis of iMLL-AF9 AML cells; assay type: cell-based, mouse
Experimental: Total RNA was extracted from 500,000 leukaemic cells using RNeasy Plus Universal Mini Kit (QIAGEN, Cat. No. 73404) following the manufacture's protocol. The RNA integrity number (RIN) was determined by High Sensitivity RNA Screen Tape analysis (Agilent, Cat. No. 5067) and all RIN was >8. High sensitivity Libraries for RNA-seq were prepared from 500 ng of total RNA using the NEBNext® Ultra™ II Directional RNA Library Prep Kit for Illumina® (NEB, Cat. No. E7760) with NEBNext Poly(A) mRNA Magnetic Isolation Module (NEB, Cat. No. E7490) following the manufacture's protocol. Nine cycles of PCR were performed to amplify libraries and the pooled library was sequenced on illumina NextSeq 500 with 85 bp single-end mode at EMBL GeneCore facility.
For analysis of differentially expressed genes, adapters were trimmed with cutadapt (version 1.18) using options: -a […]-m 50, and processed reads were mapped to GRCm38 genome_tran (release 84) with HISAT2 (version 2.2.1 (Nature Methods volume 12, pages 357-360 (2015), https://www.nature.com/nmeth)) using following option: —qc-filter. Mapped reads per gene were counted with htseq-count (HTSeq version 2.0.1 (Bioinformatics, Volume 38, Issue 10, 15 May 2022, Pages 2943-2945)) providing GTF file and differentially expressed genes were analysed using DESeq2 (version 1.30.1). […]

[3] = Steady-state haematopoiesis analyses in C57B16 mice; assay type: in vivo, mouse; conditions: 30 mg/kg i.p. twice daily for 14 days
Experimental: For steady-state analyses, 8-to 10-week-old mixed gender C57B16 mice were injected intraperitoneally twice daily for 14 days with 30 mg/kg IOX5 or vehicle control. Mice were bled before and after treatment, and culled 12 hrs after the final dosing.
Given that Dap has been deemed safe in murine and human studies^37,72,78, the impact of IOX5 (68, example 46) on normal hematopoiesis was then examined.

[4] = test system: BNIP3 protein in THP-1 cells

| Compound | apoptosis [1] | proliferation of control vs Hif1α/Hif2α-deficient cells [2] | gene set enrichment analysis (GSEA) of deregulated genes (iMLL-AF9 AML cells; 50 μM vs control) | BNIP3 transcript expression (iMLL-AF9 AML cells; murine cells) | HSPC compartment [3] | differentiated PB, BM or spleen compartments [3] | erythropoiesis [3] | BNIP3 protein (western blot) [4] |
| --- | --- | --- | --- | --- | --- | --- | --- | --- |
| O=C(O)CNC(=O)c1c(O)n(C2CCCCC2)c(=O)n(C2CCCCC2)c1=O [Daprodustat, daprodustat, reference compound] | significant apoptosis |  |  |  |  |  |  |  |
| O=C(NCC1CCC(C(F)(F)F)CC1)c1c[nH]c(-n2cccn2)cc1=O (centres unmarked) [IOX5] |  | control AML cells manifest substantially reduced proliferation, while Hif½αDKO cells are refractory | significant up-regulation of hypoxia signature, HIF-1 signalling, and activation of HIF-inducible pathways | significantly upregulated | no significant defects in the HSPC compartment | no detrimental impact on the differentiated PB, BM or spleen compartments | enhanced erythropoiesis | strongly upregulated BNIP3 protein |
